Assay results as given in PubChem BioAssay (NCI).
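Assay format: 96-well plates, 48-hour exposure. GI50 marks 50% less growth. TGI is the concentration that stops growth completely.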 Where a SMILES comes first, the peptide text is derived from it. [ ]: non-standard residue; d: D form. pGlu = O=C1CC[CH](C(=O)O)N1

Assays:
Assay in all cases: NCI tumour cell line growth inhibition, 48 h
CCRF-CEM leukemia = test system: CCRF-CEM leukemia
SK-MEL-2 melanoma = test system: SK-MEL-2 melanoma
LOX IMVI melanoma = test system: LOX IMVI melanoma
SNB-19 CNS = test system: SNB-19 CNS
HCC-2998 colon = test system: HCC-2998 colon
SF-268 CNS = test system: SF-268 CNS
HOP-92 NSCLC = test system: HOP-92 NSCLC
UACC-257 melanoma = test system: UACC-257 melanoma
SNB-75 CNS = test system: SNB-75 CNS
UACC-62 melanoma = test system: UACC-62 melanoma

Structure (SMILES) | GI50 (CCRF-CEM leukemia) [µM] | TGI (CCRF-CEM leukemia) [µM] | GI50 (SK-MEL-2 melanoma) [µM] | TGI (SK-MEL-2 melanoma) [µM] | GI50 (LOX IMVI melanoma) [µM] | TGI (LOX IMVI melanoma) [µM] | GI50 (SNB-19 CNS) [µM] | TGI (SNB-19 CNS) [µM] | GI50 (HCC-2998 colon) [µM] | TGI (HCC-2998 colon) [µM] | GI50 (SF-268 CNS) [µM] | TGI (SF-268 CNS) [µM] | GI50 (HOP-92 NSCLC) [µM] | TGI (HOP-92 NSCLC) [µM] | GI50 (UACC-257 melanoma) [µM] | TGI (UACC-257 melanoma) [µM] | GI50 (SNB-75 CNS) [µM] | TGI (SNB-75 CNS) [µM] | GI50 (UACC-62 melanoma) [µM] | TGI (UACC-62 melanoma) [µM]
CCNC(=O)C1CCCN1C(=O)C(CCCN=C(N)N)NC(=O)C(CC(C)C)NC(=O)C(CC(C)C)NC(=O)C(Cc1ccc(O)cc1)NC(=O)C(CO)NC(=O)C(Cc1c[nH]c2ccccc12)NC(=O)C(Cc1cnc[nH]1)NC(=O)C1CCC(=O)N1 (centres undefined) ([pGlu]HWSYLLRP-NHEt; configuration not given here) | 81.7 | > 100 | > 100 | > 100 | > 100 | > 100 | > 100 | > 100 | > 100 | > 100 | > 100 | > 100 | > 100 | > 100 | > 100 | > 100 | > 100 | > 100 | – | –
CC1=C(C(=O)Nc2cc(=O)n(C)c(=O)n2C)C(c2ccco2)C(C(=O)Nc2cc(=O)n(C)c(=O)n2C)=C(C)N1 | – | > 100 | – | > 100 | – | > 100 | – | > 100 | – | > 100 | – | > 100 | – | > 100 | – | > 100 | – | > 100 | – | –
NS(=O)(=O)c1ccc(-n2nc(-c3ccc(Cl)cc3)cc2-c2cc(O)ccc2O)cc1 | 3.14 | 66.6 | 33.5 | > 100 | – | – | – | – | 17.2 | 31.2 | 10.5 | 26.2 | 16 | 38.9 | 11.1 | 25.6 | – | – | 7.3 | 19.2
Cc1c[n+](=O)c2ccccc2n1[O-] | – | > 100 | – | > 100 | – | > 100 | – | > 100 | – | – | – | > 100 | – | > 100 | – | > 100 | – | > 100 | – | > 100
O=[N+]([O-])c1ccc(C[P+](c2ccccc2)(c2ccccc2)c2ccccc2)cc1 | – | > 100 | – | > 100 | – | > 100 | – | > 100 | – | > 100 | – | – | – | – | – | 47.3 | – | > 100 | – | 95.6
CC1(C)C2CCC13C(=O)C1OC3(C2)C2C(=O)c3cc4ccccc4cc3C(=O)C12 (centres undefined) | 3.42 | 25.7 | 42.2 | > 100 | – | – | 5.57 | 46.4 | 8.53 | > 100 | 5.29 | 82.4 | 4.19 | 27.5 | 20.8 | 64.8 | 54.5 | > 100 | – | –
CCCCCCCCCCCc1nnc(N)o1 | – | – | – | > 100 | – | > 100 | – | 50.7 | – | > 100 | – | > 100 | – | > 100 | – | > 100 | – | > 100 | – | > 100
O=C(O)C1=C(O)C(C(=O)O)C23CCCCCCCCCCC12C(C(=O)O)C(O)=C3C(=O)O (centres undefined) | – | > 100 | – | > 100 | – | – | – | > 100 | – | > 100 | – | > 100 | – | > 100 | – | > 100 | – | – | – | –
C=C1C(=O)O[C@H]2[C@H]1CC/C(COC(=O)CSCSCC(=O)OC/C1=C/CC[C@@]3(C)O[C@H]3[C@H]3OC(=O)C(=C)[C@@H]3CC1)=C\CC[C@@]1(C)O[C@@H]21 | 0.304 | 1.47 | 2.29 | 5.24 | 1.3 | 2.65 | 2.44 | 5.99 | 1.8 | 3.46 | 1.79 | 4.31 | 1.39 | 2.85 | 1.89 | 4.67 | – | – | 1.88 | 4.03
Cc1cc(CC(=O)NCCO)n(CCO)c(=O)c1 | – | > 100 | – | – | – | > 100 | – | > 100 | – | > 100 | – | > 100 | – | > 100 | – | > 100 | – | > 100 | – | > 100
CCOc1cccc(/C=N/N=C2\C(=O)Nc3c(Cl)cc(Cl)cc32)c1O | – | > 100 | – | > 100 | – | > 100 | – | > 100 | – | > 100 | – | – | – | > 100 | – | > 100 | – | 89.6 | – | > 100
COc1ncnc2c(-c3ccccc3)cn(COCc3ccccc3)c12 | 3.58 | > 100 | 2.08 | 4.99 | 3.27 | 14.7 | 6.53 | > 100 | 4.01 | > 100 | 4.25 | > 100 | – | – | 2.74 | 9.31 | 4.03 | > 100 | 2.1 | 8.81
CCCCCCCCNc1cc2c3c(c1)CCCN3CCC2 | 1.63 | > 100 | 3.06 | 12.7 | 1.57 | 28.5 | 3.29 | 19.4 | 5.41 | 26.8 | 2.04 | 12.8 | – | – | 1.03 | 6.71 | 1.47 | 10.8 | 2.16 | 16.4
O=C1N(C2CCCCC2)CC12CCCCC2 | – | > 100 | – | > 100 | – | > 100 | – | > 100 | – | > 100 | – | > 100 | – | > 100 | – | – | – | > 100 | – | > 100
COc1ccc(/C=C/C(=O)c2cc(OC)c(OC)c(OC)c2)cc1OCc1cn(Cc2ccc(F)cc2)nn1 | 2.14 | 8.66 | 10.6 | 41 | 2.75 | 18.7 | 4.42 | > 100 | 3.42 | 11.5 | 2.98 | > 100 | – | – | 4.9 | > 100 | – | – | 3.16 | 14.3
O=C(Oc1cccc(F)c1OC(=O)c1cccc(O)c1)c1cccc(O)c1 | – | – | > 100 | > 100 | 13 | > 100 | 99.6 | > 100 | 27.5 | 84.5 | 11.2 | > 100 | 46.6 | > 100 | 39.8 | > 100 | 35.5 | > 100 | 40.8 | > 100
COC(=O)NC(=O)c1cn(C2OC(CO)C(O)C2O)c(=O)[nH]c1=O (centres undefined) | – | – | – | > 100 | – | > 100 | – | > 100 | – | > 100 | – | > 100 | – | > 100 | – | > 100 | – | > 100 | – | > 100
